Molecular target: ACE (Ovis aries, UniProt A0ACI6QSL6)
Test: In vitro colorimetric ACE inhibition assay (HHL substrate, hippuric acid release, 410 nm)
Assay type: biochemical, sheep
Conditions: not given
Method: The ACE enzyme extract was preincubated with various concentrations of test compounds (4a–f) ranging from 250 nM to 25 μM, alongside the standard lisinopril (100–500 nM), for 10 minutes at 37 °C. The reaction was initiated by adding sodium borate buffer containing 0.3 M sodium chloride and 5 mM HHL, followed by a 30 minutes incubation at 37 °C. To terminate the reaction, 60 μL of 1 M HCl was added, which was subsequently followed by the addition of 120 μL of pyridine and 60 μL of benzene sulfonyl chloride for color development. The mixture was then cooled on ice for 5 minutes, and the resulting yellow color was measured spectrophotometrically at 410 nm. The reduction in HA concentration during the inhibition reaction, compared with that during the control reaction, was expressed as % inhibition, and the IC50 values were calculated via semilogarithmic plots. […] The IC50 values for the compounds and the standard lisinopril are presented in Table 1, and a bar graph comprising % inhibition is depicted in Fig. 2.
Sheep kidney acetone powder was prepared in the laboratory according to a modified protocol by Hector et al.[24] Fresh sheep kidney tissue was homogenized with prechilled acetone (1 : 3) and vacuum-filtered using a Buchner funnel. Re-extraction was performed until the solid residue turned colorless. This residue was air-dried and sifted to obtain a uniform powder, which was stored in an airtight container at 0–4 °C.
ACE was extracted from the prepared acetone powder as described by Jimsheena et al.[25] One gram of acetone powder was extracted via 10 mL of sodium borate buffer (0.05 M, pH 8.2) containing 0.3 M sodium chloride and 0.5% Triton X-100 at 4 °C for 18 hours. This extract was later centrifuged at 15 000g for 60 minutes at 4 °C. The supernatant was collected and dialyzed against the same buffer without Triton X-100 (3 L, the buffer was changed 3 times) for 24 hours. This extract was stored at −20 °C until further use. The specific activity was 0.8234 units per mg of protein.
ACE activity was calculated by measuring the release of hippuric acid (HA) from the substrate hippuryl-histidyl-leucine (HHL). One unit of ACE activity is defined as the amount of enzyme that releases 1 μmol of HA per minute at 37 °C and pH 8.2. The ACE enzyme extract was preincubated with different concentrations of the test compounds (250 nM to 25 μM) and a standard drug solution (lisinopril, 100–500 nM) for 10 minutes at 37 °C. The reaction was initiated by the addition of sodium borate buffer (0.05 M, pH 8.2) containing 0.3 M sodium chloride and 5 mM HHL. The mixture was incubated at 37 °C for 30 minutes, followed by the addition of 60 μL of 1 M HCl to stop the reaction. This was followed by the addition of 120 μL of pyridine and 60 μL of […] sulfonyl chloride (BSC) for color development. The mixture was mixed gently and cooled on ice for 5 minutes. The yellow color developed was measured spectrophotometrically at 410 nm.[25] The reduced HA concentration in the inhibition reaction compared with the control reaction is expressed as % inhibition, which was calculated as:% inhibition = 100 − (Atest/Acontrol) × 100,where Atest = absorbance of the test reaction and Acontrol = absorbance of the control reaction.

Sequence of ACE (A0ACI6QSL6 entry or part of it): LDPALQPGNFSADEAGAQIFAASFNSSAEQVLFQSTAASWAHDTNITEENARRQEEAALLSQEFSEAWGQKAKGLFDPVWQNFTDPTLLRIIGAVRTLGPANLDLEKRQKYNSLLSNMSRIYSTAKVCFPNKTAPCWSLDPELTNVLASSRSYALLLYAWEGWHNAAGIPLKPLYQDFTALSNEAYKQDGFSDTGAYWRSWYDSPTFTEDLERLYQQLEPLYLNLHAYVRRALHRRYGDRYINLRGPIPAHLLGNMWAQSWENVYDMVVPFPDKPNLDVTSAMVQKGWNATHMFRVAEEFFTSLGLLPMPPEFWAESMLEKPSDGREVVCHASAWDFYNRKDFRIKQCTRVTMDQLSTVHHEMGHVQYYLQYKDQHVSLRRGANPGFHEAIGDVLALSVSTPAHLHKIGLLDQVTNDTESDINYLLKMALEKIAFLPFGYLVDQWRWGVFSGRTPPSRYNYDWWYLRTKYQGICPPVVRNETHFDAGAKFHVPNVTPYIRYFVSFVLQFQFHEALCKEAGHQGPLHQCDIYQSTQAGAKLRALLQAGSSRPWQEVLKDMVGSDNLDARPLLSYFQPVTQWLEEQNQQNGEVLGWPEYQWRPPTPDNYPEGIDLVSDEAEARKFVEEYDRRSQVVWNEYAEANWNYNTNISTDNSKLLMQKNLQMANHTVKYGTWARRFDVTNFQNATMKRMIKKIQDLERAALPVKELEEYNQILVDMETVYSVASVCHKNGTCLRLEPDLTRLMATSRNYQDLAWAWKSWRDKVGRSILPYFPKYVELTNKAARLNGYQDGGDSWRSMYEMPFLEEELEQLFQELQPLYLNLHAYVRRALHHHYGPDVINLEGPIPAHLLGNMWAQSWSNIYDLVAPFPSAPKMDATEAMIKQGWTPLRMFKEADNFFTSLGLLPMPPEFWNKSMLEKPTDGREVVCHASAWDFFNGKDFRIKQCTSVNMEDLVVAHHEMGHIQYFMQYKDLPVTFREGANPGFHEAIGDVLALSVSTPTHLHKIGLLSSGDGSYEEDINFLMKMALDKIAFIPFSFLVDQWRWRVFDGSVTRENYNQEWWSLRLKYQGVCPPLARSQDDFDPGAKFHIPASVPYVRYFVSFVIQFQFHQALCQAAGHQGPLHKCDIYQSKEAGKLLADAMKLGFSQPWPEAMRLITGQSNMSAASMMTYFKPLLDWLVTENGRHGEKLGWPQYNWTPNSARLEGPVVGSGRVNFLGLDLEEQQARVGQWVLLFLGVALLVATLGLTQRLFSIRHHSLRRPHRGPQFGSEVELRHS

Molecule | IC50
NCCCC[C@H](N[C@@H](CCc1ccccc1)C(=O)O)C(=O)N1CCC[C@H]1C(=O)O [Lisinopril, reference compound] | 0.3 ± 0.135 µM

Same assay, conditions: sheep kidney ACE extract, HHL substrate, 37 °C, pH 8.2; read-out: IC50 against the ACE

Molecule | IC50
2-(2-Butyl-4-chloro-5-(hydroxymethyl)-1H-imidazol-1-yl)-1-(naphthalen-1-yl)ethan-1-ol [4d] | 2.12 ± 0.015 µM
CCCCc1nc(Cl)c(CO)n1CC(O)c1ccc(OC)cc1 (stereo not shown) [4a, 2-(2-Butyl-4-chloro-5-(hydroxymethyl)-1H-imidazol-1-yl)-1-(4-methoxyphenyl)ethan-1-ol] | 2.47 ± 0.102 µM
CCCCc1nc(Cl)c(CO)n1CC(O)c1ccc([N+](=O)[O-])cc1 (stereo not shown) [4b, 2-(2-Butyl-4-chloro-5-(hydroxymethyl)-1H-imidazol-1-yl)-1-(4-nitrophenyl)ethan-1-ol] | 1.31 ± 0.026 µM
CCCCc1nc(Cl)c(CO)n1CC(O)c1ccc(C)cc1 (stereo not shown) [4c, 2-(2-Butyl-4-chloro-5-(hydroxymethyl)-1H-imidazol-1-yl)-1-(p-tolyl)ethan-1-ol] | 1.56 ± 0.065 µM
CCCCc1nc(Cl)c(CO)n1CC(O)c1ccc(Cl)cc1 (stereo not shown) [4e, 2-(2-Butyl-4-chloro-5-(hydroxymethyl)-1H-imidazol-1-yl)-1-(4-chlorophenyl)ethan-1-ol] | 4.89 ± 0.068 µM
CCCCc1nc(Cl)c(CO)n1CC(O)c1ccc(F)cc1 (stereo not shown) [4f, 2-(2-Butyl-4-chloro-5-(hydroxymethyl)-1H-imidazol-1-yl)-1-(4-fluorophenyl)ethan-1-ol] | 7.57 ± 0.085 µM

From PMC12459522, “Design and synthesis of N-substituted-2-butyl-4-chloro-1H-imidazole derivatives as potential ACE inhibitors: in vitro study, in-silico analysis, and a multifaceted CSD-supported crystallographic investigation” (RSC Advances, 2025)
